The values below come from PMC11177801 (Journal of medicinal chemistry, 2015).

The test system of data set [1] is multidrug-resistant P. yoelii. Particulars: 100 mg/kg/day, oral route; cited from earlier work.
For data set [2], the system named is P. falciparum chloroquine-sensitive (CQS) D6 strain. Description: Malaria SYBR Green I-based Fluorescence. The class given is cell-based, Plasmodium falciparum.
In data set [3] the test system is P. falciparum chloroquine-resistant (CQR) 7G8 strain. Description: microbe, parasite or virus in culture. In kind it is cell-based. Particulars: Plasmodium falciparum, 7G8, read-out: antimalarial activity (IC50 in nM) 7G8.
The test system of data set [4] is P. falciparum chloroquine-resistant (CQR) Dd2 strain. Description: microbe, parasite or virus in culture. The class given is cell-based. Particulars: Plasmodium falciparum, DD2, read-out: antimalarial activity (IC50 in nM) Dd2.
The subject of data set [5] is P. yoelii (Kenya strain, MR4 MRA-428). Description: In vivo efficacy against murine malaria, modified 4-day test, oral gavage. Particulars: mice.
The nature of the next data set: HepG2 cytotoxicity assay. In kind it is cell-based. Particulars: human, cytotoxicity (IC50 in nM) HepG2, HepG2 cells.
Where [6] appears, read: Plasmodium falciparum, D6, read-out: antimalarial activity (IC50 in nM) D6.

Structures are written as SMILES. Read-outs that look alike come from different tables or passages of the source. A value given as a limit tells only on which side of the number the result lay.

On to `CCC1CCCCCCCCC2=N/C(=C\c3[nH]c(-c4ccc[nH]4)cc3OC)C1=C2` (stereo not shown) [Compound 3b, metacycloprodiginine], for which the mice cured entry in data set [1] is “three of four”.
In general, IC50 refers to the point on the concentration scale where inhibition reaches its midpoint. As for `CCN(CC)CCCC(C)Nc1ccnc2cc(Cl)ccc12` (stereo not shown) [CQ, chloroquine], the IC50 came out at 13 nM in data set [2] (setting [6]), 130 nM in data set [3] and 115 nM in data set [4]. The “% suppression of parasitaemia on day 5” value in data set [5] (1 mg/kg × 4 days) is 65%; in data set [5] (4 mg/kg × 4 days) it was 94%; in data set [5] (16 mg/kg × 4 days), 100%; in data set [5] (64 mg/kg × 4 days), 100%.
With `c1c[nH]c(CCCNCCNC23CC4CC(CC(C4)C2)C3)c1` [Compound 196, N^1-(3-(Pyrrol-2-yl)propyl)-N^2-(adamantan-1-yl)ethane-1,2-diamine], the IC50 in data set [2] (setting [6]), in data set [3] and in data set [4] was more than 2500 nM each time.
With `CCCCCCCCCCCC1=N/C(=C\c2[nH]c(-c3ccc[nH]3)cc2OC)C=C1` [Compound 1a, undecylprodiginine, reference compound], the IC50 in data set [2] (setting [6]) was determined as 7.2 nM; in data set [3], 7 nM; in data set [4], 7.5 nM.
The like results for `O=C(CNC(=O)c1ccc[nH]1)NC12CC3CC(CC(C3)C1)C2` [Compound 190, N-(2-((Adamantan-1-yl)amino)-2-oxoethyl)-pyrrole-2-carboxamide] were, in that order, more than 2500 nM, more than 2500 nM and more than 2500 nM.
For `c1c[nH]c(CNCCNC23CC4CC(CC(C4)C2)C3)c1` [Compound 191, N^1-((Pyrrol-2-yl)methyl)-N^2-(adamantan-1-yl)ethane-1,2-diamine], the IC50 in data set [2] (setting [6]), in data set [3] and in data set [4] was more than 2500 nM each time.
In the case of `O=C(C=Cc1ccc[nH]1)NCC(=O)NC12CC3CC(CC(C3)C1)C2` [Compound 194], the IC50 in data set [2] (read-out: antimalarial activity (IC50 in nM) D6) is more than 2500 nM.
`COC1=CC(c2cccn2C)=NC1=Cc1c(Cc2ccc(Cl)cc2)cc(Cc2ccc(Cl)cc2)n1C` [Compound 87, 5’-((3,5-Bis(4-chlorobenzyl)-1-methyl-pyrrol-2-yl)methylene)-4’-methoxy-1-methyl-2,2’-bipyrrole]: the IC50 in data set [2] (setting [6]), in data set [3] and in data set [4] was more than 2500 nM throughout.
As to `OC(c1cc(C(F)(F)F)nc2c(C(F)(F)F)cccc12)C1CCCCN1` (stereo not shown) [MQ, mefloquine], it took 21800 nM to reach half-maximal inhibition in “HepG2 cytotoxicity assay” (IC50).
